Legend:
[1] = test system: pigweed; assay: Test B pre-/postemergence herbicide test; assay type: in vivo, Amaranthus retroflexus
Procedure, shortened: (§1)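 Formulation: non-phytotoxic solvent mix with surfactant. Timing: preemergence on seed and postemergence on 2–18 cm plants, applied concurrently. Readout after 13–15 d greenhouse: visual 0–100 control rating against controls.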

[2] = test system: rice; assay: Test B flooded paddy test; assay type: in vivo, Oryza sativa; details: 1000 g ai/ha, scale 0 to 100 (0 no effect, 100 complete control)
Procedure, shortened: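 Scale 0–100: zero equals no visible effect, 100 complete control, judged by eye relative to controls. Timing: 13 to 15 days in greenhouse post-treatment. Growth stage at spraying: two leaves (paddy) or one to four leaves, 2–18 cm (postemergence).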

[3] = test system: small flower umbrella sedge; assay: Test B flooded paddy test; assay type: in vivo, Cyperus difformis; details: 1000 g ai/ha, scale 0 to 100 (0 no effect, 100 complete control)
Procedure, shortened: (§2)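 Read-out: visual comparison with controls, scored 0 to 100, where 100 means complete control and 0 no effect. Formulated chemicals were applied postemergence to plants 2–18 cm tall (1- to 4-leaf), or to flooded-paddy plants at the 2-leaf stage, then held 13 to 15 days under glass.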

[4] = test system: velvetleaf; assay: Test B pre-/postemergence herbicide test; assay type: in vivo, Abutilon theophrasti
Procedure, shortened: as §1

[5] = test system: giant foxtail; assay: Test B pre-/postemergence herbicide test; assay type: in vivo, Setaria faberi
Procedure, shortened: as §1

[6] = test system: wild oat; assay: Test B postemergence herbicide test; assay type: in vivo, Avena fatua
Procedure, shortened: (§3)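 Postemergence plants were sprayed with formulated test chemicals at 2 to 18 cm height (1- to 4-leaf stage); paddy species were grown to the 2-leaf stage. After 13 to 15 days in a greenhouse, injury was rated visually against untreated controls on a 0–100 scale (0 = no effect, 100 = complete control).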

[7] = test system: barnyardgrass; assay: Test B flooded paddy test; assay type: in vivo, Echinochloa crus-galli; details: 1000 g ai/ha, scale 0 to 100 (0 no effect, 100 complete control)
Procedure, shortened: as §2

[8] = test system: ducksalad; assay: Test B flooded paddy test; assay type: in vivo, Heteranthera limosa; details: 1000 g ai/ha, scale 0 to 100 (0 no effect, 100 complete control)
Procedure, shortened: as §2

[9] = test system: Surinam grass; assay: Test B pre-/postemergence herbicide test; assay type: in vivo, Urochloa decumbens
Procedure, shortened: as §1

[10] = test system: barnyardgrass; assay: Test B pre-/postemergence herbicide test; assay type: in vivo, Echinochloa crus-galli
Procedure, shortened: (§4)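 Pre: seeds sown, then sprayed. Post: 1–4-leaf plants (2–18 cm) sprayed at the same time. Paddy: flooded, treated at 2-leaf stage. Formulation: non-phytotoxic solvent with surfactant. Greenhouse 13–15 days; visual 0–100 score relative to controls.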

[11] = test system: morningglory; assay: Test B pre-/postemergence herbicide test; assay type: in vivo, Ipomoea coccinea
Procedure, shortened: as §4

[12] = test system: blackgrass; assay: Test B postemergence herbicide test; assay type: in vivo, Alopecurus myosuroides
Procedure, shortened: as §2

[13] = test system: cocklebur; assay: Test B pre-/postemergence herbicide test; assay type: in vivo, Xanthium strumarium
Procedure, shortened: as §4

[14] = test system: wheat; assay: Test B postemergence herbicide test; assay type: in vivo, Triticum aestivum; design: key to Wheat plant response rating: 0 = no effect, 100 = complete control
Procedure, shortened: as §3

[15] = test system: lambsquarters; assay: Test B pre-/postemergence herbicide test; assay type: in vivo, Chenopodium album
Procedure, shortened: as §1

[16] = 125 g ai/ha; 0 is no effect, 100 is complete control; preemergence
[17] = 125 g ai/ha; visual rating, scale 0 (no effect) to 100 (complete control); postemergence
[18] = 500 g ai/ha; visual rating, 0 = no effect, 100 = complete control; preemergence
[19] = postemergence, 500 g ai/ha; scale 0 to 100, 0 is no effect, 100 is complete control
[20] = 125 g ai/ha; 0 = no effect, 100 = complete control; preemergence
[21] = 500 g ai/ha; visual rating 0-100, 0 no effect, 100 complete control; preemergence
[22] = postemergence, 125 g ai/ha; visual rating, scale 0 (no effect) to 100 (complete control)
[23] = postemergence, 500 g ai/ha; visual rating, scale 0 (no effect) to 100 (complete control)

SMILES: CCC1=NN(C(C)(C)C)CC1C(=O)Nc1cc(C(=O)N2CC=CC2)ccc1F (racemic) [Compound 340]
- Plant response rating (0 to 100 scale), Pigweed [1, 16]: 100
- Pigweed plant response rating [1, 17]: 50
- Plant response rating, Pigweed [1, 18]: 100
- Pigweed plant response rating [1, 19]: 80
- Rice plant response rating [2]: 80
- Sedge, Umbrella plant response rating [3]: 80
- Plant response rating (0 to 100 scale), Velvetleaf [4, 16]: 70
- Velvetleaf plant response rating [4, 17]: 20
- Velvetleaf plant response rating [4, 19]: 40
- Plant response rating (0 to 100 scale), Foxtail, Giant [5, 16]: 60
- Foxtail, Giant plant response rating [5, 17]: 20
- Plant response rating, Foxtail, Giant [5, 18]: 100
- Foxtail, Giant plant response rating [5, 19]: 40
- Oat, Wild plant response rating [6, 17]: 20
- Oat, Wild plant response rating [6, 19]: 30
- Barnyardgrass plant response rating [7]: 90
- Ducksalad plant response rating [8]: 90
- Plant response rating (0 to 100 scale), Surinam Grass [9, 16]: 80
- Surinam Grass plant response rating [9, 17]: 10
- Plant response rating, Surinam Grass [9, 18]: 100
- Surinam Grass plant response rating [9, 19]: 20
- Plant response rating (0 to 100 scale), Barnyardgrass [10, 16]: 80
- Barnyardgrass plant response rating [10, 17]: 10
- Plant response rating, Barnyardgrass [10, 18]: 100
- Barnyardgrass plant response rating [10, 19]: 20
- Plant response rating (0 to 100 scale), Morningglory [11, 16]: 30
- Morningglory plant response rating [11, 17]: 10
- Morningglory plant response rating [11, 19]: 40
- Blackgrass plant response rating [12, 17]: 20
- Blackgrass plant response rating [12, 19]: 30
- Plant response rating (0 to 100 scale), Cocklebur [13, 16]: 20
- Cocklebur plant response rating [13, 17]: 0
- Plant response rating, Cocklebur [13, 18]: 50
- Cocklebur plant response rating [13, 19]: 20
- Wheat plant response rating [14, 17]: 0
- Wheat plant response rating [14, 19]: 10
- Plant response rating (0 to 100 scale), Lambsquarters [15, 16]: 90
- Lambsquarters plant response rating [15, 17]: 30
- Plant response rating, Lambsquarters [15, 18]: 100
- Lambsquarters plant response rating [15, 19]: 70

SMILES: CCc1nn(C(C)(C)C)cc1C(=O)Nc1cccc(C(C)=NO)c1 [Compound 188]
- Pigweed plant response rating (0 to 100 scale) [1, 20]: 40
- Plant response rating, Pigweed [1, 21]: 70
- Pigweed plant response rating [1, 22]: 50
- Pigweed plant response rating [1, 23]: 70
- Rice plant response rating ([2]; visual rating, 13 to 15 days): 70
- Sedge, Umbrella plant response rating ([3]; visual rating, 13 to 15 days): 80
- Velvetleaf plant response rating (0 to 100 scale) [4, 20]: 70
- Plant response rating, Velvetleaf [4, 21]: 100
- Velvetleaf plant response rating [4, 22]: 10
- Velvetleaf plant response rating [4, 23]: 20
- Foxtail, Giant plant response rating (0 to 100 scale) [5, 20]: 50
- Plant response rating, Foxtail, Giant [5, 21]: 100
- Foxtail, Giant plant response rating [5, 22]: 10
- Foxtail, Giant plant response rating [5, 23]: 10
- Oat, Wild plant response rating [6, 22]: 20
- Oat, Wild plant response rating [6, 23]: 20
- Barnyardgrass plant response rating ([7]; visual rating, 13 to 15 days): 60
- Ducksalad plant response rating ([8]; visual rating, 13 to 15 days): 80
- Surinam Grass plant response rating (0 to 100 scale) [9, 20]: 30
- Plant response rating, Surinam Grass [9, 21]: 70
- Surinam Grass plant response rating [9, 22]: 10
- Surinam Grass plant response rating [9, 23]: 10
- Barnyardgrass plant response rating (0 to 100 scale) [10, 20]: 80
- Plant response rating, Barnyardgrass [10, 21]: 100
- Barnyardgrass plant response rating [10, 22]: 10
- Barnyardgrass plant response rating [10, 23]: 20
- Morningglory plant response rating (0 to 100 scale) [11, 20]: 10
- Morningglory plant response rating [11, 22]: 20
- Morningglory plant response rating [11, 23]: 60
- Blackgrass plant response rating [12, 22]: 10
- Blackgrass plant response rating [12, 23]: 10
- Cocklebur plant response rating (0 to 100 scale) [13, 20]: 0
- Plant response rating, Cocklebur [13, 21]: 0
- Cocklebur plant response rating [13, 22]: 20
- Cocklebur plant response rating [13, 23]: 90
- Wheat plant response rating [14, 22]: 0
- Wheat plant response rating [14, 23]: 10
- Lambsquarters plant response rating (0 to 100 scale) [15, 20]: 90
- Plant response rating, Lambsquarters [15, 21]: 100
- Lambsquarters plant response rating [15, 22]: 60
- Lambsquarters plant response rating [15, 23]: 70
